# Experiments:
# Assay in all cases: Antibacterial activity in vitro, Minimal Inhibitory Concentration
# Format in all cases: cell-based
# Serr. Mar. IMM-16 = test system: Serr. Mar. IMM-16
# Excerpt: (§1) The compounds of the invention are new chemical compounds that are used as pharmacological agents and especially as broad spectrum antibacterial agents. They are active in vitro against strains of both gram-positive and gram-negative bacteria. The activity of the compounds is illustrated by the results shown in the table for certain of the preferred compounds.
# Staph Aureus UC-76 = test system: Staph Aureus UC-76
# Excerpt: as §1
# Pseudo. Aeru UI-18 = test system: Pseudo. Aeru UI-18
# Excerpt: as §1
# Pseudo. Aeru BRK = test system: Pseudo. Aeru BRK
# Excerpt: as §1
# Klebs. Pneu. MGH-2 = test system: Klebs. Pneu. MGH-2
# Excerpt: as §1
# Entero C. IMM-11 = test system: Entero C. IMM-11
# Excerpt: as §1
# E. Coli Brig = test system: E. Coli Brig
# Excerpt: as §1
# Prot. Vulg. 1810 = test system: Prot. Vulg. 1810
# Excerpt: as §1
# E. Coli Vogel = test system: E. Coli Vogel
# Excerpt: as §1
# Pseudo. Aeru 28 = test system: Pseudo. Aeru 28
# Excerpt: as §1
Compound,Minimal Inhibitory Concentration (Serr. Mar. IMM-16) [µg/mL],Minimal Inhibitory Concentration (Staph Aureus UC-76) [µg/mL],Minimal Inhibitory Concentration (Pseudo. Aeru UI-18),Minimal Inhibitory Concentration (Pseudo. Aeru BRK) [µg/mL],Minimal Inhibitory Concentration (Klebs. Pneu. MGH-2) [µg/mL],Minimal Inhibitory Concentration (Entero C. IMM-11) [µg/mL],Minimal Inhibitory Concentration (E. Coli Brig) [µg/mL],Minimal Inhibitory Concentration (Prot. Vulg. 1810) [µg/mL],Minimal Inhibitory Concentration (E. Coli Vogel) [µg/mL],Minimal Inhibitory Concentration (Pseudo. Aeru 28) [µg/mL]
"CC(=O)N1CCCC1C(=O)Nc1ccc2[nH]cc(C(=O)NC(C(=O)NC3C(=O)N4C3SC(C)(C)C4C(=O)O)c3ccc(O)cc3)c(=O)c2c1 (stereo not drawn) [N-[6-[[(1-Acetyl-2-pyrrolidinyl)carbonyl]amino]-1,4-dihydro-4-oxo-3-quinolinylcarbonyl]amoxicillin]",6.3,3.1,3.1 µg/mL,3.1,6.3,6.3,6.3,0.8,0.2,3.1
"CC(=O)NC(C)C(=O)Nc1ccc2c(=O)c(C(=O)NC(C(=O)NC3C(=O)N4C3SC(C)(C)C4C(=O)O)c3ccc(O)cc3)c[nH]c2c1 (stereo not drawn) [N-[7-[[2-(Acetylamino)-1-oxopropyl]amino]-1,4-dihydro-4-oxo-3-quinolinylcarbonyl]amoxicillin]",6.3,0.8,.6 µg/mL,1.6,6.3,3.1,3.1,0.8,0.2,1.6
"CC(=O)NC(C)C(=O)Nc1ccc2[nH]cc(C(=O)NC(C(=O)NC3C(=O)N4C3SC(C)(C)C4C(=O)O)c3ccc(O)cc3)c(=O)c2c1 (stereo not drawn) [N-[6-[[2-(Acetylamino)-1-oxopropyl]amino]-1,4-dihydro-4-oxo-3-quinolinylcarbonyl]amoxicillin]",3.1,1.6,1.6 µg/mL,1.6,6.3,3.1,3.1,0.8,0.4,0.4
"CC1(C)S[C@@H]2[C@H](NC(=O)[C@H](NC(=O)c3cc4cc(NC(=O)NCC(N)=O)ccc4[nH]c3=O)c3ccc(O)cc3)C(=O)N2[C@H]1C(=O)O [N-[3-[1,2-dihydro-2-oxo-6-(5-oxo-2-pyrrolidinyl)amino]-quinolinylcarbonyl]amoxicillin]",,1.6,,1.6,,3.1,,,,1.6
"CC1(C)SC2C(NC(=O)C(NC(=O)c3c[nH]c4c(NC(=O)C5CCC(=O)N5)cccc4c3=O)c3ccc(O)cc3)C(=O)N2C1C(=O)O (stereo not drawn) [N-[1,4-Dihydro-4-oxo-8-[[(5-oxo-2-pyrrolidinyl)carbonyl]-amino]-3-quinolinylcarbonyl]amoxicillin]",12.5,1.6,3.1 µg/mL,1.6,12.5,6.3,6.3,3.1,3.1,0.8
"N-[(-[[2-(Acetylamino)-1-oxopropl]amino]-1,4-dihydro-4-oxo-3-quinolinylcarbonyl]amoxicillin",12.5,1.6,.1 µg/mL,3.1,12.5,12.5,12.5,3.1,3.1,0.8
"CC(=O)NC(C)C(=O)Nc1ccc2[nH]c(=O)c(C(=O)NC(C(=O)NC3C(=O)N4C3SC(C)(C)C4C(=O)O)c3ccc(O)cc3)cc2c1 (stereo not drawn) [N-[6-[[(2-Acetylamino)-1-oxopropyl]amino]-1,2-dihydro-2-oxo-3-quinolinylcarbonyl]amoxicillin]",12.5,1.6,1.6 µg/mL,1.6,12.5,6.3,6.3,3.1,1.6,1.6
"CC(=O)N1CCCC1C(=O)Nc1ccc2[nH]c(=O)c(C(=O)NC(C(=O)NC3C(=O)N4C3SC(C)(C)C4C(=O)O)c3ccc(O)cc3)cc2c1 (stereo not drawn) [N-[6-[[(1-Acetyl-2-pyrrolidinyl)carbonyl]amino]-1,2-dihydro-2-oxo-3-quinolinylcarbonyl]amoxicillin]",12.5,0.8,1.6 µg/mL,1.6,25,3.1,3.1,0.8,0.2,1.6
"CC1(C)SC2C(NC(=O)C(NC(=O)c3c[nH]c4ccc(NC(=O)C5CCC(=O)N5)cc4c3=O)c3ccc(O)cc3)C(=O)N2C1C(=O)O (stereo not drawn) [N-[1,4-Dihydro-4-oxo-6[[(5-oxo-2-pyrrolidinyl)carbonyl]-amino]-3-quinolinylcarbonyl]amoxicillin]",6.3,1.6,1.6 µg/mL,3.1,12.5,3.1,6.3,1.6,1.6,3.1
"N-[1,4-Dihydro-4-oxo-7-[[(5-oxo-2-pyrrolidinyl)carbonyl]-amino]-3-quinolinylcarbonyl]amoxicillin",1.6,0.8,3.1 µg/mL,0.4,3.1,3.1,3.1,0.8,0.4,0.8
"CC(=O)N1CC(O)CC1C(=O)Nc1ccc2[nH]c(=O)c(C(=O)NC(C(=O)NC3C(=O)N4C3SC(C)(C)C4C(=O)O)c3ccc(O)cc3)cc2c1 (stereo not drawn) [N-[6-[[(1-Acetyl-4-hydroxy-2-pyrrolidinyl)carbonyl]-amino]-1,2-dihydro-2-oxo-3-quinolinylcarbonyl]amoxicillin]",25,0.8,1.6 µg/mL,3.1,25,6.3,12.5,3.1,6.3,1.6
"CC(=O)N1CC(O)CC1C(=O)Nc1ccc2c(=O)c(C(=O)NC(C(=O)NC3C(=O)N4C3SC(C)(C)C4C(=O)O)c3ccc(O)cc3)c[nH]c2c1 (stereo not drawn) [N-[7-[[(1-Acetyl-4-hydroxy-2-pyrrolidinyl)carbonyl]-amino]-1,4-dihydro-4-oxo-3-quinolinecarbonyl]amoxicillin]",6.3,1.6,3.1 µg/mL,3.1,12.5,6.3,12.5,0.8,3.1,3.1

# Source: patent publication US4382089A, “Antibacterial amide compounds, compositions thereof and methods of using them” (Warner-Lambert Company, priority 1982, dated 1983)
